Experimental data reported in patent US6635459B1, “Nucleotide sequences encoding pinoresinol/lariciresinol reductase proteins and their methods of use” (Washington State University Research Foundation, priority 1996, dated 2003).

Experiments:
cAMP-phosphodiesterase = conditions: cited from earlier work
HIV = conditions: cited from earlier work
HW-1 = conditions: cited from earlier work
[1] = target: T1, 35 kDa form of (+)-pinoresinol/(+)-lariciresinol reductase (Forsythia intermedia, UniProt P93143); test: Initial velocity studies, reductase 35 kDa isoform; assay type: biochemical; conditions: 35 kDa form of the enzyme; NADPH 80 μM, pH 7.4, 30° C.
T1 construct: pure enzyme (after MonoQ anion-exchange chromatography); from tissue; host or cells: Forsythia intermedia stems
T1 sequence (P93143 2-312): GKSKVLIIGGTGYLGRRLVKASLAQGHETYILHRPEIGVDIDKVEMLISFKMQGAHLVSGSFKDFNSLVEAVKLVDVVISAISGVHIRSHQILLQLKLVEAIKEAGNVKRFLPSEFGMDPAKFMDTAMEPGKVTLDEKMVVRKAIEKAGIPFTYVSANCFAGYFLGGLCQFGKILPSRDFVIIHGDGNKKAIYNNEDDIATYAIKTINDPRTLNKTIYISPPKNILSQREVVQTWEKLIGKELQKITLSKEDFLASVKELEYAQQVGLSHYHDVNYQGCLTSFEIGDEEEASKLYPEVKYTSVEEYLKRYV
Procedure: (§1) Kinetic Parameters. […] The initial velocity studies were carried out individually utilizing the two isoforms of the enzyme, and individually employing both (+)-pinoresinol and (+)-lariciresinol as substrates. Initial velocity studies were performed in triplicate experiments, using 50 mM Bis-Tris Propane buffer, pH 7.4 containing 5 mM dithiothreitol, pure enzyme (after MonoQ anion-exchange chromatography), ten different substrate concentrations (between 8.8 and 160 μM) at a constant NADPH concentration (80 μM). Incubations were carried out at 30° C. for 10 min (within the linear kinetic range). Kinetic parameters were determined from Lineweaver-Burk plots.

[2] = target: 36 kDa form of (+)-pinoresinol/(+)-lariciresinol reductase (Forsythia x intermedia, UniProt P93143); test: Initial velocity studies, reductase 36 kDa isoform; conditions: 36 kDa form of the enzyme; NADPH 80 μM, pH 7.4, 30° C.
Procedure: as §1

(±)-pinoresinols = test: Substrate specificity of recombinant Thuja plicata reductases expressed in E. coli; assay type: biochemical; conditions: β-galactosidase fusion in E. coli total protein extract, 3 hour incubation at 30° C.

**Q.** With `COc1cc(C[C@H]2COC(=O)[C@@H]2Cc2ccc(O)c(OC)c2)ccc1O` [matairesinol] as the molecule, how does the cAMP-phosphodiesterase inhibition (cAMP-phosphodiesterase) read?
**A.** The cAMP-phosphodiesterase inhibition was “inhibit cAMP-phosphodiesterase”.

**Q.** Which “effectiveness against HIV (reverse transcriptase inhibitory activities)” value (HIV) does the source give for (−)-trachelogenin here?
**A.** Its value is “effective against HIV”.

**Q.** And the “inhibition of in vitro replication of HW-1” value (HW-1)?
**A.** Its value is “inhibits”.

**Q.** For (+)-pinoresinol, which Km [1] is on record?
**A.** Its Km is 27 ± 1.5 µM.

**Q.** And the “Vmax (apparent maximum velocity)” value [1]?
**A.** Its value is 16.2±0.4 μmol h^−1 mg^−1 of protein.

**Q.** What about the Km [2] of the same molecule?
**A.** Its Km is 23 ± 1.3 µM.

**Q.** What about the “Vmax (apparent maximum velocity)” value [2] of the same molecule?
**A.** The value was 17.3±0.5 μmol h^−1 mg^−1 of protein.

**Q.** With `COc1cc(C[C@]2(O)C(=O)OC[C@H]2Cc2ccc(OC)c(OC)c2)ccc1O` (single isomer, unassigned) [(+)-enantiomer] as the molecule, how does the “inhibition of in vitro replication of HW-1” value (HW-1) read?
**A.** Its value is “much less effective”.

B1: plr-Tp1: Thuja plicata (−)-pinoresinol/(−)-lariciresinol reductase (SEQ ID NO:62) expressed in E. coli (protein)
chain: MDKKSRVLIVGGTGYIGKRIVNASISLGHPTYVLFRPEVVSNIDKVQMLLYFKQLGAKLIEASLDDHQRLVDALKQVDVVISALAGGVLSHHILEQLKLVEAIKEAGNIKRFLPSEFGMDPDIMEHALQPGSITFIDKRKVRRAIEAASIPYTYVSSNMFAGYFAGSLAQLDGHMMPPRDKVLIYGDGNVKGIWVDEDDVGTYTIKSIDDPQTLNKTMYIRPPMNILSQKEVIQIWERLSEQNLDKIYISSQDFLADMKDKSYEEKIVRCHLYQIFFRGDLYNFEIGPNAIEATKLYPEVKYVTMDSYLERYV
**Q.** Which substrate specificity ((±)-pinoresinols) does the source give for B1 here?
**A.** Its substrate specificity is “can use both (−)-pinoresinol and (+)-pinoresinol as substrates”.

B2: plr-Tp2: Thuja plicata (+)-pinoresinol/(+)-lariciresinol reductase (SEQ ID NO:64) expressed in E. coli (protein)
chain: MEESSRVLIVGGTGYIGRRIVKASIALGHPTFILFRKEVVSDVEKVEMLLSFKKNGAKLLEASFDDHESLVDAVKQVDVVISAVAGNHMRHHILQQLKLVEAIKEAGNIKRFVPSEFGMDPGLMEHAMAPGNIVFIDKIKVREAIEAASIPHTYISANIFAGYLVGGLAQLGRVMPPSEKVILYGDGNVKAVWVDEDDVGIYTIKAIDDPHTLNKTMYIRPPLNILSQKEVVEKWEKLSGKSLNKINISVEDFLAGMEGQSYGEQIGISHFYQMFYRGDLYNFEIGPNGVEASQLYPEVKYTTVDSYMERYL
**Q.** Which substrate specificity ((±)-pinoresinols) does the source give for B2 here?
**A.** Its substrate specificity is “same substrate specificity and product formation as the original Forsythia intermedia reductase”.
